Measurements: paper PMC9179336, “Therapeutic Validation of GEF-H1 Using a De Novo Designed Inhibitor in Models of Retinal Disease” (Cells, 2022)
Where no end group is shown, it is not given here.

Tests used:
[1] = system: RPE cells (TGFβ-stimulated); experiment: RPE cell scratch wound migration assay; format: cell-based, porcine; details: 16 h
[2] = system: MDCK cells; experiment: LDH release (CytoTox-ONE), MDCK cells; format: cell-based; details: overnight, increasing concentrations
Experimental: (§1) HEK293 and MDCK cells were seeded in triplicate wells and incubated overnight with the indicated concentration of TAT-P5 or TAT-F1. The next day 30 μL of medium was removed from each well and incubated with 30μL of CytoTox-ONE (Promega) reagent for 40 min. Fluorescence was then measured to assess LDH release. To assess Caspase 3/7 activity cells were assayed using Apo-ONE Homogenous Caspase-3/7 assay (Promega) according to manufactures instructions.
(§2) We next tested whether the inhibitors are toxic to cultured cells. MDCK and HEK293 cells were incubated with increasing concentrations of either TAT-F1 or TAT-P5 overnight before analysis of LDH release as a measure of necrosis or Caspase 3/7 activity to assess induction of apoptosis (Figure S2).
(§3) MDCK (A) and HEK 293 (B) cells were incubated overnight with TAT-F1 or TAT-P5 at the concentrations indicated. Cell toxicity was then assessed by measuring caspase 3/7 activity in cell extracts and release of LDH into the medium. No significant cell toxicity was observed.
(§4) (1 picture or pasted object on this page, not shown here)

[3] = system: HEK293 cells; experiment: LDH release (CytoTox-ONE), HEK293 cells; format: cell-based; details: overnight, increasing concentrations
Experimental: as §1, §2, §3, §4

[4] = system: MDCK cells; experiment: Caspase 3/7 activity (Apo-ONE), MDCK cells; format: cell-based; details: overnight, increasing concentrations
Experimental: as §1, §2, §3, §4

[5] = system: HEK293 cells; experiment: Caspase 3/7 activity (Apo-ONE), HEK293 cells; format: cell-based; details: overnight, increasing concentrations
Experimental: as §1, §2, §3, §4

Sequence	RPE cell migration (scratch closure), in words [1]	cytotoxicity, LDH release (necrosis), MDCK [2]	cytotoxicity, LDH release (necrosis), HEK293 [3]	cytotoxicity, Caspase 3/7 activity (apoptosis), MDCK [4]	cytotoxicity, Caspase 3/7 activity (apoptosis), HEK293 [5]
GRKKRRQRRRPWQDYIAEVPRSDYDLRPTGQD [TAT-scr, scrambled version of TAT-P5, negative control peptide]	had no effect				
GRKKRRQRRRPWQGQEDYDRLRPASYPDTDVI [TAT-P5]		Neither assay revealed an increase in cytotoxicity	Neither assay revealed an increase in cytotoxicity	Neither assay revealed an increase in cytotoxicity	Neither assay revealed an increase in cytotoxicity
